# Source: publication PMC7158045 (BMC Plant Biology, 2020)
# Like-named read-outs stand apart in the source and are kept apart here.
# Key:
# Assay in all cases: biochemical
# [1] = molecular target: T1, ZmDRIK1-R187-P492 (Zea mays, UniProt C0P4K9)
# T1 construct: kinase domain, R187-P492
# T1 sequence (C0P4K9 1-514): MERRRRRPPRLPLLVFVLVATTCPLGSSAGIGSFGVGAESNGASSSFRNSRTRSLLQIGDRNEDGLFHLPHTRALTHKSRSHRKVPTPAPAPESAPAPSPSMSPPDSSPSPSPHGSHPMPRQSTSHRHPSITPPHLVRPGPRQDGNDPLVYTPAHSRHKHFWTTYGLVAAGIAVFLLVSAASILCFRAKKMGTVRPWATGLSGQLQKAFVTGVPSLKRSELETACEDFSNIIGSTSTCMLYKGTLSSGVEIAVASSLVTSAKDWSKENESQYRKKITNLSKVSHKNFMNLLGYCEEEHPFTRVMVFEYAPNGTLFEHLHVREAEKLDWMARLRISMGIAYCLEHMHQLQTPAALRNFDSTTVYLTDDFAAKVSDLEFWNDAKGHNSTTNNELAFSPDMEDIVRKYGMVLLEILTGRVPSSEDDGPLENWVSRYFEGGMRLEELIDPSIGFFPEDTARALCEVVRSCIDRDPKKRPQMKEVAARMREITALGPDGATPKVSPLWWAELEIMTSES
# [2] = molecular target: T2, ZmDRIK1-K217-S514 (Zea mays, UniProt C0P4K9)
# T2 construct: kinase domain, K217-S514
# T2 sequence (C0P4K9 1-514): T1 sequence (C0P4K9 1-514)
# [3] = molecular target: T3, ZmDRIK1 (DROUGHT RESPONSIVE INACTIVE KINASE 1), kinase domain (Zea mays, UniProt C0P4K9)
# T3 construct: gene ZEAMMB73_Zm00001d028770; ZmDRIK1-KD R187-S514 (kinase domain)
# T3 sequence (C0P4K9 187-514): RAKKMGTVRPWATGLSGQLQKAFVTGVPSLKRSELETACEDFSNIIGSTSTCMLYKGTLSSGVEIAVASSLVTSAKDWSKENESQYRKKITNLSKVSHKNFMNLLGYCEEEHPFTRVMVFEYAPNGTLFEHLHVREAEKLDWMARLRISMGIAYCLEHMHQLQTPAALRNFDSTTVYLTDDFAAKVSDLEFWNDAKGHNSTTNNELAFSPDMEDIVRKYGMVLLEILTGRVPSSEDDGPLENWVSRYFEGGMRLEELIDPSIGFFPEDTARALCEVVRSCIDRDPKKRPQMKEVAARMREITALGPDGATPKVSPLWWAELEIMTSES
# [4] = molecular target: T4, ZmDRIK1-K217-P492 (Zea mays, UniProt C0P4K9)
# T4 construct: kinase domain, K217-P492
# T4 sequence (C0P4K9 1-514): T1 sequence (C0P4K9 1-514)
# [5] = read-out: dTm B, DSF, Boltzmann fit, 0.1% DMSO
# [6] = read-out: dTm B, sheet ZmDRIK1-K217-S514;, DSF, Boltzmann fit, 0.1% DMSO
# [7] = read-out: dTm B, sheet ZmDRIK1-R187-S514;, DSF, Boltzmann fit, 0.1% DMSO
# [8] = read-out: dTm B, sheet ZmDRIK1-K217-P492;, DSF, Boltzmann fit, 0.1% DMSO
SMILES,"ΔTm at 10 µM [1, 5]","ΔTm at 10 µM [2, 6]","ΔTm at 10 µM [3, 7]","ΔTm at 10 µM [4, 8]",ΔTm at 10 µM ([1]; read-out: dTm B),ΔTm at 10 µM ([2]; read-out: dTm B),ΔTm at 10 µM ([3]; read-out: dTm B),ΔTm at 10 µM ([4]; read-out: dTm B)
CCN1CCN(C(=O)Cc2ccc(Nc3ncc(F)c(Nc4ccc(C(=O)Nc5ccccc5Cl)cc4)n3)cc2)CC1 [Aurora A Inhibitor I],-0.457 °C,-0.286 °C,-0.616 °C,-1.33 °C,–,–,–,–
O=C1Nc2ccc(I)cc2/C1=C/c1cc(Br)c(O)c(Br)c1 [GW5074],-0.306 °C,0.341 °C,-0.178 °C,-0.0461 °C,–,–,–,–
CC(C)(C)c1cc(C=C(C#N)C#N)cc(C(C)(C)C)c1O [Tyrphostin 9],-0.79 °C,-0.346 °C,-0.564 °C,-0.298 °C,–,–,–,–
Nc1ncnc2c1c(-c1cccc(OCc3ccccc3)c1)cn2C1CC(CN2CCCC2)C1 (stereo in doubt) [NVP-ADW742],-0.18 °C,-0.731 °C,-1.07 °C,-0.671 °C,–,–,–,–
O=C(Nc1cccc(Nc2ncc(Br)c(NCCc3cnc[nH]3)n2)c1)N1CCCC1 [BX-912],-0.165 °C,-0.277 °C,-0.512 °C,-0.986 °C,–,–,–,–
Cc1cnc(NC(=O)Nc2cc(Br)c(C)cc2OC[C@@H]2CNCCO2)cn1 [LY2603618],-0.548 °C,-0.525 °C,-0.608 °C,-0.992 °C,–,–,–,–
COc1ccc(Cl)c(Nc2nc3ccccc3nc2NS(=O)(=O)c2cccc(NC(=O)C(C)(C)N)c2)c1 [XL147],-0.0333 °C,0.807 °C,-0.972 °C,0.134 °C,–,–,–,–
CC(C)n1nc(-c2ccc3oc(N)nc3c2)c2c(N)ncnc21 [INK 128 (MLN0128)],-0.315 °C,-0.433 °C,-0.628 °C,-0.659 °C,–,–,–,–
O=c1c(O)c(-c2ccc(O)c(O)c2)oc2cc(O)cc(O)c12 [Quercetin],-0.357 °C,-0.0338 °C,-0.63 °C,-1.11 °C,–,–,–,–
Nc1cc(C(F)(F)F)c(-c2cc(N3CCOCC3)nc(N3CCOCC3)n2)cn1 [BKM120 (NVP-BKM120)],-0.326 °C,-0.33 °C,-0.731 °C,-1.39 °C,–,–,–,–
COc1ccc(N(C(=O)Oc2c(C)cccc2C)c2ccnc(Nc3ccc(N4CCN(C)CC4)cc3)n2)c(OC)c1 [WH-4-023],–,–,–,–,-0.703 °C,-0.646 °C,-0.841 °C,-0.826 °C
O=C(Nc1nc2cccc(-c3ccc(CN4CCS(=O)(=O)CC4)cc3)n2n1)C1CC1 [Filgotinib (GLPG0634)],-0.607 °C,-0.594 °C,-0.878 °C,-1.16 °C,–,–,–,–
O=c1cc(N2CCOCC2)oc2c(-c3ccccc3)cccc12 [LY294002],-0.0828 °C,-0.184 °C,-0.881 °C,-0.874 °C,–,–,–,–
Cc1ccccc1CN1C(=O)C2=C(CCN(Cc3ccccc3)C2)N2CCN=C12 [TIC10],–,–,–,–,-0.155 °C,-0.395 °C,-0.768 °C,0.685 °C
CCOc1cc2ncc(C#N)c(Nc3ccc(F)c(Cl)c3)c2cc1NC(=O)/C=C/CN(C)C [Pelitinib (EKB-569)],-0.494 °C,-0.496 °C,-0.77 °C,-0.854 °C,–,–,–,–
CC(C)(C)Cn1c(N)nc2ccc(-c3[nH]c(C(C)(C)C)nc3-c3ccc(F)cc3)nc21 [LY2228820],-0.267 °C,-0.619 °C,-0.95 °C,-0.453 °C,–,–,–,–
OCCn1cc(-c2ccc3c(c2)CC/C3=N\O)c(-c2ccncc2)n1 [GDC-0879],-0.0449 °C,-0.397 °C,-0.639 °C,-1.04 °C,–,–,–,–
Oc1ccc2ccccc2c1SSc1c(O)ccc2ccccc12 [IPA-3],-15.4 °C,-15 °C,-20.6 °C,-15.1 °C,–,–,–,–
CCN1CCN(Cc2ccc(Nc3ncc(F)c(-c4cc(F)c5nc(C)n(C(C)C)c5c4)n3)nc2)CC1 [LY2835219],-0.433 °C,-0.201 °C,-0.878 °C,-0.986 °C,–,–,–,–
COc1cc(CCc2cc(NC(=O)c3ccc(N4C[C@@H](C)N[C@@H](C)C4)cc3)n[nH]2)cc(OC)c1 [AZD4547],0.421 °C,0.296 °C,0.239 °C,0.194 °C,–,–,–,–
CCc1ccc(C=C2SC(=S)NC2=O)cc1 [10058-F4],-0.741 °C,-0.172 °C,-1.27 °C,-1.02 °C,–,–,–,–
CNc1nc(Nc2cn(C(C)(C)C#N)nc2C)ncc1C(F)(F)F [GNE-0877],-0.575 °C,-0.602 °C,-0.833 °C,-0.848 °C,–,–,–,–
COc1cc2c(Nc3ccc(NC(=O)c4ccccc4)cc3)ncnc2cc1OCCCN1CCOCC1 [ZM 447439],0.124 °C,0.111 °C,-0.965 °C,-0.314 °C,–,–,–,–
CN1CCN(c2nc(C3=C(c4c[nH]c5ccccc45)C(=O)NC3=O)c3ccccc3n2)CC1 [Sotrastaurin],-0.608 °C,-0.412 °C,-0.541 °C,-0.642 °C,–,–,–,–

# Continued, in another order:
"ΔTm at 10 µM [1, 5]","ΔTm at 10 µM [2, 6]","ΔTm at 10 µM [3, 7]","ΔTm at 10 µM [4, 8]",SMILES,ΔTm at 10 µM ([1]; read-out: dTm B),ΔTm at 10 µM ([2]; read-out: dTm B),ΔTm at 10 µM ([3]; read-out: dTm B),ΔTm at 10 µM ([4]; read-out: dTm B)
-0.274 °C,-0.375 °C,-0.528 °C,-0.621 °C,Cn1cnc(N)c2ncnc1-2 [3-Methyladenine],–,–,–,–
-0.25 °C,0.339 °C,-0.971 °C,-0.759 °C,Clc1ccc(C2(c3ccc(-c4cn[nH]c4)cc3)CCNCC2)cc1 [AT7867],–,–,–,–
-0.238 °C,-0.242 °C,-0.877 °C,-0.694 °C,COc1ccc(S(=O)(=O)N(C(C)=O)c2ccccc2/C=C/c2cc[n+]([O-])cc2)cc1 [HMN-214],–,–,–,–
-0.212 °C,-0.551 °C,-0.709 °C,-0.348 °C,NC(=O)c1cnc(N[C@@H]2CCCC[C@@H]2N)nc1Nc1cccc(-n2nccn2)c1 [PRT062607 (P505-15)],–,–,–,–
-0.283 °C,-0.279 °C,-0.862 °C,-0.796 °C,O=C1NC(=O)/C(=C/c2ccc3nccc(-c4ccncc4)c3c2)S1 [GSK1059615],–,–,–,–
-0.526 °C,-0.327 °C,-0.644 °C,-1.22 °C,CO[C@H]1C[C@@H]2CC[C@@H](C)[C@@](O)(O2)C(=O)C(=O)N2CCCC[C@H]2C(=O)O[C@H]([C@H](C)C[C@@H]2CC[C@@H](OCCO)[C@H](OC)C2)CC(=O)[C@H](C)/C=C(\C)[C@@H](O)[C@@H](OC)C(=O)[C@H](C)C[C@H](C)/C=C/C=C/C=C/1C [Everolimus (RAD001)],–,–,–,–
-0.547 °C,-0.681 °C,-0.97 °C,-0.53 °C,C[C@]1(O)C[C@@H](c2nc(-c3ccc4ccc(-c5ccccc5)nc4c3)c3c(N)nccn32)C1 [OSI-906 (Linsitinib)],–,–,–,–
0.724 °C,0.721 °C,-0.108 °C,-0.0923 °C,C=CC(=O)Nc1ccc2ncnc(Nc3cccc(Br)c3)c2c1 [PD168393],–,–,–,–
-0.238 °C,-4.75 °C,-0.713 °C,-1.05 °C,COc1ccc2cc(-c3nc(-c4ccc([S+](C)[O-])cc4)[nH]c3-c3ccncc3)ccc2c1 (stereo not shown) [Tie2 kinase inhibitor],–,–,–,–
-0.284 °C,-0.645 °C,-0.852 °C,-1.5 °C,Cc1cc(N2CCOCC2)cc2[nH]c(-c3c(NC[C@@H](O)c4cccc(Cl)c4)cc[nH]c3=O)nc12 [BMS-536924],–,–,–,–
-0.282 °C,-0.29 °C,-0.792 °C,-1.3 °C,CC[C@@H]1C(=O)N(C)c2cnc(Nc3ccc(C(=O)N[C@H]4CC[C@H](N5CCN(CC6CC6)CC5)CC4)cc3OC)nc2N1C(C)C [Volasertib (BI 6727)],–,–,–,–
0.213 °C,-19 °C,-1.96 °C,-0.717 °C,Nc1nccc(Oc2ccc(NC(=O)c3c[nH]cc(-c4ccc(F)cc4)c3=O)cc2F)c1Cl [BMS-794833],–,–,–,–
-0.423 °C,-0.552 °C,-0.702 °C,-1.05 °C,CC(C)(C#N)c1ccc(N2C(=O)OCc3cnc4ccc(-c5cnc6ccccc6c5)cc4c32)cc1 [ETP-46464],–,–,–,–
